From patent publication US20230119013A1, “N-CYANOPYRROLIDINES WITH ACTIVITY AS USP30 INHIBITORS” (MISSION THERAPEUTICS LIMITED, priority 2020, published 2023)
Read-outs that look alike come from different tables or passages of the source.

Columns and labels:
[1] = biological target: T1, UCHL1 (Homo sapiens, UniProt P09936); assay: DUB IC50 UCHL1; type: biochemical
T1 sequence (P09936 1-223): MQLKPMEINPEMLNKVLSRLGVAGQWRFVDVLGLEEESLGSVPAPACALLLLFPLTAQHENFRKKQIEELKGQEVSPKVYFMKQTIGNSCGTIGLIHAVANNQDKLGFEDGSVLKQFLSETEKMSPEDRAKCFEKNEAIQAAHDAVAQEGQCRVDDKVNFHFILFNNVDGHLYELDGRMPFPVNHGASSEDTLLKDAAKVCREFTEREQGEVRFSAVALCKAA

[2] = biological target: Cathepsin S (Homo sapiens, UniProt P25774); assay: Cathepsin IC50, Cathepsin S; type: biochemical
[3] = tested on: cathepsins B, K, L, S and V; assay: Cathepsin IC50, summary over B, K, L, S, V; type: biochemical; details: K, L; for fold more potent against USP30 than against each of the cathepsins, at a minimum: cathepsins B, S and V; for Selectivity preference for USP30 v cathepsins: range over cathepsins B, S
[4] = tested on: T2, cathepsins B, K, L, S and V; assay: Cathepsin IC50, summary over B, K, L, S, V; type: biochemical; details: range over the five cathepsins
T2 construct: Cathepsin IC50 (μM) B, K, L, S, V; other: range over the five cathepsins

[5] = tested on: Eurofins CEREP SafetyScreen44 panel; assay: Eurofins CEREP SafetyScreen44 panel profiling; type: binding; details: single concentration of 10 μM; for Example 2 all targets except 5-HT2b
Source text: Aside from selectivity over other DUB enzymes, it is important for a drug to have low affinity for other targets, and pharmacological profiling may be performed against panels of targets to assess the potential for, and to minimise, potential off-target effects. Examples of targets for which the compounds of the present invention may be screened against are those of the industry standard Eurofins-Cerep SafetyScreen44 panel, which includes 44 targets as a representative selection of GPCR receptors, transporters, ion channels, nuclear receptors, and kinase and non-kinase enzymes. Preferably, compounds of the invention have insignificant affinity against targets of this screening panel. Further examples of targets for which the compounds of the present invention may be screened against are kinases of the Thermo Fisher SelectScreen kinase profiling panel, which includes 39 targets as a representative selection of kinase enzymes. Preferably, compounds of the invention have insignificant affinity against targets of this screening panel. Additionally, examples of a particular enzyme class for which the compounds of the present invention may be screened against are the cathepsins (e.g. cathepsin A, B, C, H, K, L, L2, S, V and Z). Preferably, compounds of the invention have good selectivity for USP30 over one or more of these enzymes. […]

[6] = tested on: Salmonella typhimurium strains TA98, TA100, TA1535 and TA97a and the Escherichia Coli strain WP2 uvrA pKM101; assay: Bacterial reverse mutation assay (Ames); type: cell-based; details: up to 1000 μg/well (5000 μg/plate), with and without metabolic activation
Description: The bacterial reverse mutation assay (Ames Test) may be used to evaluate the mutagenic properties of compounds of the invention, commonly by using the bacterial strain Salmonella typhimurium, which is mutant for the biosynthesis of the amino acid histidine.
Example 1 was assessed in the bacterial reverse mutation assay (Ames) and in vitro micronucleus assay. All in vitro tests were conducted with and without exogenous metabolic activation using concentrations up to those limited by cytotoxicity or insolubility.
Example 2 was assessed in the bacterial reverse mutation assay (Ames). All in vitro tests were conducted with and without exogenous metabolic activation using concentrations up to those limited by cytotoxicity or insolubility.

[7] = tested on: HCT116 human colorectal carcinoma cells; assay: In vitro cytotoxicity (Cell Tox), alamarBlue; type: cell-based; details: HCT-116, 96-hour continual compound exposure
Description: In Vitro Cytotoxicity (Cell Tox): Measured in HCT116 human colorectal carcinoma cells using alamarBlue™ as the assay endpoint. Compound cytotoxicity was measured over a period of 96-hour continual compound exposure.

[8] = Turbidimetric solubility; type: physicochemical; details: aqueous buffer, kinetic from dmso stock
Source text: (§1) log P: partition coefficient; lipophilicity measurement. log D: distribution co-efficient; lipophilicity measurement. TPSA: topological polar surface area. Turbidimetric solubility: Test compound solution prepared in DMSO diluted into aqueous buffer. Turbidimetry is used as the end-point by measuring absorbance at 620 nm. FaSSIF: simulated intestinal fluid in fasted state measured at pH 6.5. Hep Cl mouse: in vitro hepatocyte clearance in mouse cells. Hep Cl human: in vitro hepatocyte clearance in human cells. Plasma fu,p: The free fraction of a compound in plasma preparation determined by in vitro equilibrium dialysis. It is understood that only unbound (free) compound is capable of engaging with the target. Brain fu,br: The free fraction of a compound in brain homogenate preparation determined by in vitro equilibrium dialysis. It is understood that only unbound (free) compound is capable of engaging with the target. Clu: in vitro clearance. Clu as defined here is the scaled clearance, in turn calculated from the intrinsic clearance. The intrinsic clearance is the predicted clearance due to hepatic metabolic reactions, determined from incubation of a compound in a hepatocyte preparation. […] Cl in vivo clearance: Pharmacokinetic measurement of the volume of plasma (or any matrix) from which a substance is completely removed per unit time.

[9] = tested on: hepatocyte; assay: Hepatocyte clearance human; type: in vitro ADME; details: human hepatocytes
Source text: as §1

[10] = Mouse plasma stability; type: in vitro ADME; details: read-out: Stability Mouse plasma t1/2
[11] = tested on: P-glycoprotein (MDR1), human; assay: MDR1-MDCK flux assay; type: in vitro ADME; details: dog; for Papp A→B: value in brackets
Source text: The treatment of CNS disorders, including Alzheimer's disease, Parkinson's disease, and other disorders described herein, requires drug molecules to target the brain, which requires adequate penetration of the blood brain barrier. […] The probability that a compound can cross the blood brain barrier may be measured by an in vitro flux assay utilizing a MDR1-MDCK cell monolayer (Madin-Darby Canine Kidney cells transfected with MDR-1 resulting in overexpression of the human efflux transporter P-glycoprotein). Additionally, exposure may also be measured directly in brain and plasma using in vivo animal models.
(§2) MDR1-MDCK (Madin-Darby Canine Kidney cell monolayer) (in vitro) flux assay. Cell TE WB: USP30 endogenous cellular target engagement western blot (WB) assay. Assays the activity of compounds against USP30 in cells using an irreversible activity probe to monitor USP30 activity. TE ex vivo: USP30 kidney tissue target engagement assay. Kp u,u is the ratio of unbound drug in brain to unbound drug in plasma and may be indicative of potential for treating peripheral and/or CNS indications.

[12] = PK mouse; type: in vivo; details: for Unbound plasma Cmax/TOM20-Ub cell potency: 10 mg/kg PO dose - mouse; for bioavailability: po, 10 mg/kg, read-out: PK mouse Oral F (%); for bioavailability / clearance: mouse
Source text: as §1, §2

[13] = whole blood, 2 mg/kg iv, read-out: PK mouse Cl blood

Chain of Cathepsin S (P25774 115-331, species assumed): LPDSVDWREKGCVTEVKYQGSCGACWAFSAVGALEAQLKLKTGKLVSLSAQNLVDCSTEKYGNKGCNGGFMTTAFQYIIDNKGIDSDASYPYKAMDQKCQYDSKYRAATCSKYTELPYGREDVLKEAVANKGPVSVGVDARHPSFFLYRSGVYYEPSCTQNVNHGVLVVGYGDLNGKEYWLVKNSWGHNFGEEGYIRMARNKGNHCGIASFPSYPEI

COC[C@@H]1C[C@@H](NC(=O)c2ncc(-c3cccc(OC(F)(F)F)c3)o2)CN1C#N [Example 1, N-((3R,5S)-1-Cyano-5-(methoxymethyl)pyrrolidin-3-yl)-5-(3-(trifluoromethoxy)phenyl)oxazole-2-carboxamide]
DUB selectivity preference for USP30 v UCHL1 [1]: 60000
IC50 [1]: > 300 µM
IC50 [2]: 158 µM
fold more potent against USP30 than against each of the cathepsins, at a minimum [3]: ≥ 3300 fold
Selectivity preference for USP30 v cathepsins [3]: 3300-31600
IC50 [4]: 16.5 to 158 µM
inhibition of binding or enzyme activity against all targets in the panel [5]: less than 20%
induction of mutations, reverse mutation assay ([6]; TA98, TA100, TA1535, TA97a and E. coli WP2 uvrA pKM101): did not induce mutations
EC50 [7]: > 30 µM
solubility [8]: > 100 µM
Hepatocyte Cl human scaled Clu [9]: 5.6 mL/min/kg
half-life [10]: 11 h
efflux ratio [11]: 5.4
Papp A→B [11]: 18 ×10⁻⁶ cm/s
Kp uu ([12]; 2 mg/kg IV dose - mouse, unbound brain to unbound plasma): 0.21
Unbound plasma Cmax/TOM20-Ub cell potency [12]: 25-fold
bioavailability ([12]; plasma): 59%
clearance ([12]; plasma, IV, read-out: IV plasma clearance): 20 mL/min/kg
clearance [12, 13]: 20 mL/min/kg

C[C@@H]1C[C@@H](NC(=O)c2ncc(-c3cccc(OC(F)(F)F)c3)o2)CN1C#N [Example 2, N-((3R,5R)-1-Cyano-5-methylpyrrolidin-3-yl)-5-(3-(trifluoromethoxy)phenyl)oxazole-2-carboxamide]
DUB selectivity preference for USP30 v UCHL1 [1]: 20000
IC50 [1]: > 100 µM
IC50 [2]: > 30 µM
fold more potent against USP30 than against each of the cathepsins, at a minimum [3]: ≥ 1700 fold
Selectivity preference for USP30 v cathepsins [3]: 1700-6000
IC50 [4]: ≥ 8.5 µM
inhibition of binding or enzyme activity against all targets in the panel [5]: less than 20%
induction of mutations, reverse mutation assay ([6]; TA98 and TA100): did not induce mutations
EC50 [7]: 24 µM
solubility [8]: > 100 µM
Hepatocyte Cl human scaled Clu [9]: 11.2 mL/min/kg
half-life [10]: 7 h
efflux ratio [11]: 1.9
Papp A→B [11]: 12 ×10⁻⁶ cm/s
Unbound plasma Cmax/TOM20-Ub cell potency [12]: 7-fold
bioavailability ([12]; in vivo): 36%
clearance [12, 13]: 58 mL/min/kg
